Experimental findings from patent US5663197A, “2-(1-hydroxyethyl)-5-hydroxynaphtho[2,3-b]furan-4,9-dione and antitumor agents comprising this compound” (priority 1992, dated 1997) are described below.

≈ marks a conversion by molar mass, not a printed value.

Common to all, as to assay type: cell-based
Data set [1] concerns Human uninary bladder carcinoma T24 cells. Description: In vitro antitumor test (trypan blue exclusion viable cell count), T24. How it is done: (§1) An appropriate amount of NFD was dissolved in DMSO to give a 1.0 mg/ml stock solution, which was diluted as necessary before use.
(§2) The following cells in the late logarithmic phase were harvested after treatment with trypsin (containing 0.25% trypsin and 0.02% EDTA; 37° C., 3 min) and used in the test: human lung adenocarcinoma cell lines A-549, VMRC-LCD and SK-LU-1, human lung squamous cell carcinoma Calu-1 cells, human colon adenocarcinoma WiDr cells, human prostate cancer LNCaP cells, human vaginal squamous cell carcinoma A-431 cells, human cervical carcinoma HeLa cells, human cholangiocarcinoma HuCC-T1 cells, mouse skin cancer melanoma B16 (M4) cells, human pancreatic carcinoma ASPC-1 cells, human neuroblastoma IMR-132 cells, human lung small cell carcinoma SCCH-194 cells, human uninary bladder carcinoma T24 cells, human renal cell carcinoma […] cells, human gastric cancer NUGC-2 cells, human thyroid carcinoma 8305C cells, human hepatoma HUH-7 cells, human ovarian carcinoma TYK-nu cells and human chorio carcinoma BeWo cells. […] These cells were plated onto a 96-well microplate at a density of 5-10×10^3 cells/cm^2 using DMEM or RPMI-1640 medium containing 10% fetal bovine serum and cultured for 24 hours in a conventional manner, after which a pre-determined amount of NFD dissolved in DMSO was added to each well. […]

Data set [2] relates to Human chorio carcinoma BeWo cells. The data set is described as follows: In vitro antitumor test (trypan blue exclusion viable cell count), BeWo. How it is done:
as §1, §2

In a further data set the test system is human lung cancer cells. The data set is described as follows: In vitro antitumor test, human lung cancer cells (FIGS. 1-4). The method, then: as §1, §2
A further data set deals with Normal human renal cells. The data set is described as follows: In vitro growth test on normal cells, renal cells. How it is done:
as §1
as §2, with “cells. Suspension cultures of human breast cancer MRK-nu-1 cells, human malignant B-cell lymphoma cells and human chronic myelogenous leukemia K562 cells were used to harvest the cells to be used in the test.” for “cells.”, “well. Cultivation was continued, and the number of viable cells was counted after 24, 48 and 72 hours.” for “well.”
(§3) Growth inhibitory action and lethal activity of NFD on various types of malignant tumor cells and normal human cells listed above were evaluated by counting the number of viable cells in each well of the 96-well microplate. […]

Data set [3] relates to Human lung adenocarcinoma VMRC-LCD cells. The data set is described as follows: In vitro antitumor test (trypan blue exclusion viable cell count), VMRC-LCD. To be noted: 72 h, three days exposure, read-out: LD50 (IC50), 50% growth-inhibitory dose. The method, then: as §1, §2
Data set [4] has as its system Human lung adenocarcinoma SK-LU-1 cells. The data set is described as follows: In vitro antitumor test (trypan blue exclusion viable cell count), SK-LU-1. The following applies: 72 h, three days exposure, read-out: LD50 (IC50), 50% growth-inhibitory dose. The method, then: as §1, §2
Data set [5] deals with Human renal cell carcinoma VMRC-RCW cells. The data set is described as follows: In vitro antitumor test (trypan blue exclusion viable cell count), VMRC-RCW. The method, then:
as §1
as §2, with “cells. Suspension cultures of human breast cancer MRK-nu-1 cells, human malignant B-cell lymphoma cells and human chronic myelogenous leukemia K562 cells were used to harvest the cells to be used in the test.” for “cells.”, “well. Cultivation was continued, and the number of viable cells was counted after 24, 48 and 72 hours.” for “well.”
as §3

Data set [6] has as its system Human cholangiocarcinoma HuCC-T1 cells. The data set is described as follows: In vitro antitumor test (trypan blue exclusion viable cell count), HuCC-T1. How it is done:
as §1, §2

Broadly, the IC50 is the concentration needed to halve the response being measured. As for `CC(O)c1cc2c(o1)C(=O)c1cccc(O)c1C2=O` (stereo not shown) [NFD, 2-(1-hydroxyethyl)-5-hydroxynaphtho[2,3-b]furan-4,9-dione], the IC50 is 0.021 µg/mL (≈ 0.0813 µM) in data set [1] (T-24, 72 h, T24, three days exposure, read-out: LD50 (IC50), 50% growth-inhibitory dose); 0.018 µg/mL (≈ 0.0697 µM) in data set [2] (72 h, three days exposure, read-out: LD50 (IC50), 50% growth-inhibitory dose); 0.065 µg/mL (≈ 0.252 µM) in the data set on Normal human renal cells (Homo sapiens, 72 h, normal renal cells, three days exposure, read-out: LD50 (IC50), 50% growth-inhibitory dose); 0.013 µg/mL (≈ 0.0503 µM) in data set [3]; 0.017 µg/mL (≈ 0.0658 µM) in data set [4]; 0.019 µg/mL (≈ 0.0736 µM) in data set [5] (Homo sapiens, 72 h, VMRC-RCW, three days exposure, read-out: LD50 (IC50), 50% growth-inhibitory dose). In addition, in data set [6] (HuCCT-1, 72 h, HuCC-T1, three days exposure, read-out: LD50 (IC50), 50% growth-inhibitory dose), the IC50 was found to be 0.02 µg/mL (≈ 0.0775 µM). Further, the IC (almost complete) in data set [1] (T-24, FIG. 16, read-out: concentration inhibiting growth almost completely) is 0.023 µg/mL; in data set [2] (FIG. 23, read-out: concentration inhibiting growth almost completely) it was 0.0343 µg/mL; in the data set on human lung cancer cells (Homo sapiens, read-out: concentration inhibiting growth almost completely) it was 0.0112 to 0.0168 µg/mL; in data set [5] (Homo sapiens, FIG. 17, read-out: concentration inhibiting growth almost completely), 0.017 µg/mL; in data set [6] (HuCCT-1, FIG. 9, read-out: concentration inhibiting growth almost completely), 0.0224 µg/mL. The “concentration causing necrosis in almost all tumor cells” value was 33.5 to 55.4 ng/mL with human lung cancer cells and 50 ng/mL in data set [5] (FIG. 17). Besides, in the data set on Normal human renal cells (FIG. 27, at concentrations which cause necrosis in tumor cells), the “adverse effects on growth of normal cells” value is “no adverse effects”. Further, the “concentration inhibiting growth of normal renal cells” value in the data set with Normal human renal cells (FIG. 27, only at higher concentration) was determined as 100 ng/mL.
